According to article PMC9668928, “Zandelisib (ME-401) in Japanese patients with relapsed or refractory indolent non-Hodgkin’s lymphoma: an open-label, multicenter, dose-escalation phase 1 study” (International Journal of Hematology, 2022):

Test system: Japanese patients with R/R iNHL
Test: Phase 1 dose-escalation study: safety and tolerability (TEAEs, DLTs)
Format: in vivo
Text: Japanese patients aged ≥ 20 years with R/R iNHL histologically confirmed as FL, nodal MZL, extra-nodal MZL of mucosa-associated lymphoid tissue, small lymphocytic lymphoma, lymphoplasmacytic lymphoma, Waldenström’s macroglobulinemia, or equivalent, according to World Health Organization classification, were eligible for this study. Other key eligibility criteria included being PI3K inhibitor therapy-naïve and an Eastern Cooperative Oncology Group performance status of 0 or 1. Further details of inclusion and exclusion criteria are provided in Supplementary Table 1.
This was a multicenter, open-label, dose-escalation, phase 1 study in Japan. All patients received oral zandelisib once daily at the same time each day, at least 1 h before or 2 h after a meal (CS: continuous schedule). Each treatment cycle was 28 days. Definitions of the DLTs described in this study can be found in Supplementary Table 2. The observation period for DLTs was from day 1 of Cycle 1 to day 1 of Cycle 2. Zandelisib was administered until disease progression or unacceptable toxicity. In the event of an AE, patients could be switched to IDT. In the case of disease progression while receiving IDT, patients could be switched back to CS per the investigator’s discretion.
A starting dose of 45 mg was set for investigating patient safety. This study adopted a standard 3 + 3 design. […] If DLTs occurred in 2 or more patients, the study was planned to be suspended pending a safety evaluation. If a DLT occurred in 1 patient, 3 further patients were added to cohort 1. If DLTs occurred in 0/3 or 1/6 patients in cohort 1, dosing in cohort 2 commenced (n = 6; 60 mg/day). If the incidence of DLTs in cohort 2 was ≤ 1/6, the maximum tolerated dose was not determined, and the dose in cohort 2 was to be selected as the recommended Japanese phase 2 dose.
The primary endpoint was the safety [number of patients with treatment-emergent adverse events (TEAEs), based on Common Terminology Criteria for Adverse Events version 5.0] and tolerability (including laboratory values, vital signs, and electrocardiogram performance) of zandelisib in Japanese patients. Hepatobiliary disorder, aspartate/alanine (AST/ALT) increased, diarrhea/colitis, organizing pneumonia, stomatitis, or rash were defined as irAEs in this manuscript. Secondary endpoints included PK (plasma concentrations and PK parameters) and the efficacy of zandelisib. […] The PK parameters for Cycle 1 day 1 and Cycle 2 day 1 were calculated for each patient by non-compartmental analysis. PK parameters included maximum plasma drug concentration (Cmax), area under the plasma concentration–time curve (AUC) from time zero to the last measurable point (AUC0–t), the AUC from time zero to infinity (AUC0-inf), and terminal half-life (t1/2).

CN1CCC(c2ccccc2CC(C)(C)Nc2nc(N3CCOCC3)nc(-n3c(C(F)F)nc4ccccc43)n2)CC1 [zandelisib]
2 patients: Grade 3 irAEs (45 mg)
3 (100.0) n (%): TEAE Investigations (SOC), All grades (45 mg, n = 3)
2 (66.7) n (%): TEAE ALT increased, All grades (45 mg, n = 3) | TEAE AST increased, All grades (45 mg, n = 3) | TEAE Constipation, All grades (45 mg, n = 3) | TEAE Diarrhea, All grades (45 mg, n = 3) | TEAE Gastrointestinal disorders (SOC), All grades (45 mg, n = 3) | TEAE Gastrointestinal disorders (SOC), Grade ≥ 3 (45 mg, n = 3) | TEAE Hypogammaglobulinemia, All grades (45 mg, n = 3) | TEAE Immune system disorders (SOC), All grades (45 mg, n = 3) | TEAE Infections and infestations (SOC), All grades (45 mg, n = 3) | TEAE Investigations (SOC), Grade ≥ 3 (45 mg, n = 3) | TEAE Lymphocyte count decreased, All grades (45 mg, n = 3) | TEAE Musculoskeletal and connective tissue disorders (SOC), All grades (45 mg, n = 3) | TEAE Nasopharyngitis, All grades (45 mg, n = 3) | TEAE Neutrophil count decreased, All grades (45 mg, n = 3)
0 n (%): TEAE ALT increased, Grade ≥ 3 (45 mg, n = 3) | TEAE AST increased, Grade ≥ 3 (45 mg, n = 3) | TEAE Abdominal discomfort, All grades (45 mg, n = 3) | TEAE Abdominal discomfort, Grade ≥ 3 (45 mg, n = 3) | TEAE Abdominal pain upper, Grade ≥ 3 (45 mg, n = 3) | TEAE Amylase increased, Grade ≥ 3 (45 mg, n = 3) | TEAE Anemia, Grade ≥ 3 (45 mg, n = 3) | TEAE Arthralgia, Grade ≥ 3 (45 mg, n = 3) | TEAE Back pain, Grade ≥ 3 (45 mg, n = 3) | TEAE Blepharitis, All grades (45 mg, n = 3) | TEAE Blepharitis, Grade ≥ 3 (45 mg, n = 3) | TEAE Blood and lymphatic system disorders (SOC), Grade ≥ 3 (45 mg, n = 3) | TEAE Blood creatinine increased, All grades (45 mg, n = 3) | TEAE Blood creatinine increased, Grade ≥ 3 (45 mg, n = 3) | TEAE Bradycardia, Grade ≥ 3 (45 mg, n = 3) | TEAE CMV test positive, Grade ≥ 3 (45 mg, n = 3) | TEAE Cardiac disorders (SOC), Grade ≥ 3 (45 mg, n = 3) | TEAE Conjunctivitis, Grade ≥ 3 (45 mg, n = 3) | TEAE Constipation, Grade ≥ 3 (45 mg, n = 3) | TEAE Cough, All grades (45 mg, n = 3) | TEAE Cough, Grade ≥ 3 (45 mg, n = 3) | TEAE Drug hypersensitivity, All grades (45 mg, n = 3) | TEAE Drug hypersensitivity, Grade ≥ 3 (45 mg, n = 3) | TEAE Drug-induced liver injury, All grades (45 mg, n = 3) | TEAE Drug-induced liver injury, Grade ≥ 3 (45 mg, n = 3) | TEAE Dry eye, Grade ≥ 3 (45 mg, n = 3) | TEAE Dry skin, Grade ≥ 3 (45 mg, n = 3) | TEAE Dysgeusia, Grade ≥ 3 (45 mg, n = 3) | TEAE Ear and labyrinth disorders (SOC), Grade ≥ 3 (45 mg, n = 3) | TEAE Eczema, All grades (45 mg, n = 3) | TEAE Eczema, Grade ≥ 3 (45 mg, n = 3) | TEAE Eosinophil count increased, Grade ≥ 3 (45 mg, n = 3) | TEAE Erythema multiforme, All grades (45 mg, n = 3) | TEAE Erythema multiforme, Grade ≥ 3 (45 mg, n = 3) | TEAE Eye disorders (SOC), Grade ≥ 3 (45 mg, n = 3) | TEAE Flank pain, All grades (45 mg, n = 3) | TEAE Flank pain, Grade ≥ 3 (45 mg, n = 3) | TEAE GGT increased, All grades (45 mg, n = 3) | TEAE GGT increased, Grade ≥ 3 (45 mg, n = 3) | TEAE General disorders and administration site conditions (SOC), Grade ≥ 3 (45 mg, n = 3) | TEAE Hepatic function abnormal, Grade ≥ 3 (45 mg, n = 3) | TEAE Hepatobiliary disorders (SOC), Grade ≥ 3 (45 mg, n = 3) | TEAE Herpes simplex, Grade ≥ 3 (45 mg, n = 3) | TEAE Herpes zoster, All grades (45 mg, n = 3) | TEAE Herpes zoster, Grade ≥ 3 (45 mg, n = 3) | TEAE Hypoesthesia, Grade ≥ 3 (45 mg, n = 3) | TEAE Hypogammaglobulinemia, Grade ≥ 3 (45 mg, n = 3) | TEAE Immune system disorders (SOC), Grade ≥ 3 (45 mg, n = 3) | TEAE Infections and infestations (SOC), Grade ≥ 3 (45 mg, n = 3) | TEAE Infusion site extravasation, Grade ≥ 3 (45 mg, n = 3) | TEAE Insomnia, Grade ≥ 3 (45 mg, n = 3) | TEAE Joint effusion, Grade ≥ 3 (45 mg, n = 3) | TEAE Muscle spasms, Grade ≥ 3 (45 mg, n = 3) | TEAE Musculoskeletal and connective tissue disorders (SOC), Grade ≥ 3 (45 mg, n = 3) | TEAE Nasopharyngitis, Grade ≥ 3 (45 mg, n = 3) | TEAE Nausea, Grade ≥ 3 (45 mg, n = 3) | TEAE Nervous system disorders (SOC), Grade ≥ 3 (45 mg, n = 3) | TEAE Oral herpes, Grade ≥ 3 (45 mg, n = 3) | TEAE Oropharyngeal pain, All grades (45 mg, n = 3)
no deaths were observed: deaths (45 mg and 60 mg)
1 (33.3) n (%): TEAE Abdominal pain upper, All grades (45 mg, n = 3) | TEAE Amylase increased, All grades (45 mg, n = 3) | TEAE Anemia, All grades (45 mg, n = 3) | TEAE Arthralgia, All grades (45 mg, n = 3) | TEAE Back pain, All grades (45 mg, n = 3) | TEAE Blood and lymphatic system disorders (SOC), All grades (45 mg, n = 3) | TEAE Bradycardia, All grades (45 mg, n = 3) | TEAE CMV test positive, All grades (45 mg, n = 3) | TEAE Cardiac disorders (SOC), All grades (45 mg, n = 3) | TEAE Conjunctivitis, All grades (45 mg, n = 3) | TEAE Cytomegalovirus viremia, All grades (45 mg, n = 3) | TEAE Decreased appetite, All grades (45 mg, n = 3) | TEAE Decreased appetite, Grade ≥ 3 (45 mg, n = 3) | TEAE Diarrhea, Grade ≥ 3 (45 mg, n = 3) | TEAE Dry eye, All grades (45 mg, n = 3) | TEAE Dry skin, All grades (45 mg, n = 3) | TEAE Dysgeusia, All grades (45 mg, n = 3) | TEAE Dyspnea, All grades (45 mg, n = 3) | TEAE Dyspnea, Grade ≥ 3 (45 mg, n = 3) | TEAE Ear and labyrinth disorders (SOC), All grades (45 mg, n = 3) | TEAE Eosinophil count increased, All grades (45 mg, n = 3) | TEAE Eye disorders (SOC), All grades (45 mg, n = 3) | TEAE General disorders and administration site conditions (SOC), All grades (45 mg, n = 3) | TEAE Hepatic function abnormal, All grades (45 mg, n = 3) | TEAE Hepatobiliary disorders (SOC), All grades (45 mg, n = 3) | TEAE Herpes simplex, All grades (45 mg, n = 3) | TEAE Hypoesthesia, All grades (45 mg, n = 3) | TEAE Infusion site extravasation, All grades (45 mg, n = 3) | TEAE Insomnia, All grades (45 mg, n = 3) | TEAE Joint effusion, All grades (45 mg, n = 3) | TEAE Lymphocyte count decreased, Grade ≥ 3 (45 mg, n = 3) | TEAE Metabolism and nutrition disorders (SOC), All grades (45 mg, n = 3) | TEAE Metabolism and nutrition disorders (SOC), Grade ≥ 3 (45 mg, n = 3) | TEAE Muscle spasms, All grades (45 mg, n = 3) | TEAE Nausea, All grades (45 mg, n = 3) | TEAE Nervous system disorders (SOC), All grades (45 mg, n = 3) | TEAE Neutrophil count decreased, Grade ≥ 3 (45 mg, n = 3) | TEAE Oral herpes, All grades (45 mg, n = 3) | TEAE Organizing pneumonia, All grades (45 mg, n = 3) | TEAE Organizing pneumonia, Grade ≥ 3 (45 mg, n = 3)
